Source: patent US6383488B1, “Pre-M/M epitopes of dengue virus, synthetic peptides, chimeric proteins and their use” (priority 1997, dated 2002)
“Also recorded” adds a separate entry of the source.

How the values were obtained:
[1] = system: anti-peptide antibodies in sera of Dengue patients; test: Indirect ELISA to detect anti-peptide antibodies, human sera; assay type: binding; conditions: 118 sera of Dengue patients diluted 1/200; for Percentage of positivity of human sera to peptide: peptide coated at 10 µg/ml
Procedure: Peptides 19-6, 20-1, 20-2, 20-3 were fixed to the plates in a 10 m g/ml concentration in coating buff they were incubated at 4 C. overnight Sera were added diluted 1/200 in PBS-Tween 20. Finally, total human /peroxidase anti-immunoglobuline conjugate was added, and subsequently, the substrate (orthophenylendiamine, H2O2, 0.05 M phosphate citrate buffer, pH 5) was added. The reading was carried out in an ELISA reader at 492 nm and the cut-off value for each peptide was determined.
The sera used were from subjects having viral clinical infection that was serologically diagnosed as Dengue by the techniques of Inhibition of the hemagglutination (Clarke, D. H. y Casals, J. 1958. Techniques for hemagglutination and hemagglutination—inhibition with Arthropod Borne Virus. Am. J. Trop. Med. Hyg. 7 p.561) and ELISA of inhibition (Vzquez, S., Fernndez, R. 1989. Utilizacin de un mtodo de ELISA de Inhibicin en el diagnstico serolgico de dengue. Rev. Cub. Med. Trop. 41(1) p18-26) for total anti-dengue antibodies.
The study induded 118 sera from patents of the epidemics occurred in Cuba 1981, Panama 1994 and Costa Rica 1994. Dengue virus 2 was isolated in these epidemics, besides serotype 1 and 4 in Costa Rica; they were classified according to the titers of inhibiting antibodies of hemagglutination in cases of primary and secondary infections.

[2] = system: spleen T lymphocytes cultured with dengue 2 virus; test: In vitro blastogenesis assay of spleen T lymphocytes from peptide-immunized mice; assay type: cell-based, BALB/c mice; conditions: mice immunized with non-conjugated peptides; cells cultured with dengue 2 virus
Procedure: T cells from 19-6 and 19-5 immunized mice proliferated in an in vitro blastogenesis assay when they were cultured with the dengue 2 virus. […] It could contain a T cell cryptic epitope, being recognized in the free form of peptide but not like a result of the immunodominant epitopes presentation and processing of the virus in a natural infection.
FIG. 5. Proliferative response to dengue 2 virus antigens (at concentrations of 10, 20 and 40 m g/ml) of spleen T cells from peptides-immunized mice 19-6, 19-5 and 20-2.

[3] = system: Dengue virus serotype 3 (D3); test: In vitro plaque-reduction neutralization test (PRNT) of anti-peptide sera, serotype D3; assay type: cell-based; conditions: sera of Balb/c mice immunized with peptide-BSA conjugate; titer = dilution giving 50% plaque number reduction; BHK-21 cells
[4] = system: Dengue 2 virus (strain A 15); test: In vitro plaque-reduction neutralization test (PRNT) of anti-peptide sera, serotype D2; assay type: cell-based; conditions: sera of Balb/c mice immunized with peptide-BSA conjugate; titer = dilution giving 50% plaque number reduction; BHK-21 cells
Procedure: Neutralization technique was carried out according to Morens (Morens, D. M. et al. 1985. Simplified plaque reduction neutralization assay for dengue viruses by semimicro methods in BHK-21 cells: Comparison of the BHK suspension test with standard plaque reduction neutralization. J. Clin. Microbiol. 22 p.250).
Dilutions of anti-peptide sera and of anti-BSA controls and negative sera from 1/10 to 1/640 were prepared. Each dilution of sera was put into contact with a dilution of the virus (strain A 15 of Dengue 2) having 15-20 PFU/50 ml.
The mixture was incubated at 37 C. during 1 hour. A total of 50 ml of each mixture were added in triplicate to BHK-21 cells in plates of 24 wells, and they were incubated in a CO2 incubator at 37 C. during 4 hours. Then, 0.5 ml of carboxymethylcellulose-containing medium were added, and it was incubated again for several days considering the viral serotype used. After these days tinction and the count of lysis plaques produced by the virus were carried out.
Titer was expressed in each case as the dilution at which it was obtained the 50% of plaque number reduction.

[5] = system: Dengue virus serotype 1 (D1); test: In vitro plaque-reduction neutralization test (PRNT) of anti-peptide sera, serotype D1; assay type: cell-based; conditions: sera of Balb/c mice immunized with peptide-BSA conjugate; titer = dilution giving 50% plaque number reduction; BHK-21 cells
[6] = system: Dengue virus serotype 4 (D4); test: In vitro plaque-reduction neutralization test (PRNT) of anti-peptide sera, serotype D4; assay type: cell-based; conditions: sera of Balb/c mice immunized with peptide-BSA conjugate; titer = dilution giving 50% plaque number reduction; BHK-21 cells
[7] = system: four Dengue virus serotypes; test: Induction of neutralizing antibodies (summary statement); assay type: cell-based; conditions: against the four Dengue virus serotypes; immunized mice
Procedure: Peptides were inoculated in Balb/c mice both conjugated or not to a carrier protein. The sera obtained after immunization with the conjugated peptides were tested by in vitro neutralization by reducing the number of plaques and by ELISA. We also studied the active protection against a Dengue 2 viral challenge in the immunized mice.

[8] = system: live, mouse-adapted dengue-2 virus (strain A15); test: Protection assay, intracranial challenge of immunized mice; assay type: in vivo, Balb/c mice; conditions: mice immunized with conjugated peptides; 100 LD50 intracranial; observed up to 21 days; Fisher's test, p<0,05
Procedure: Male Balb/c mice of 4-6 weeks old were immunized with 50 mg of the peptide-BSA conjugate intraperitoneally. In addition, two immunization schemes were performed, one with BSA and the other with PBS. A total of 4 inoculations were carried out, each of them 15 days apart. The Freund's Complete Adjuvant was used in the first doses, and the Freund's Incomplete Adjuvant in the others. A blood sample was extracted from the retro-orbital vein seven days after the last inoculation.
Mice were challenged 7 days after the last immunization by intracraneal injection with an dilution of 1/2500 (corresponding to 100 LD50 lethal doses) of live, mouse-adapted dengue-2 virus (strain A15). […] Data were tested for statistical significance using Fisher's test.

synthetic peptides = test: ELISA of sera from mice immunized with fusion proteins, against the synthetic peptides; assay type: binding; conditions: mouse immunization with semipurified fusion proteins
Source text: Mouse immunization with PD33 and PD34 fusion proteins semipurified by a non-denaturalizing protocol, has elicited high titers against them in ELISA (up to 1/100 000), and at the same time antibodies with titers up to 1/4000 in ELISA against the synthetic peptides have been obtained.

Molecule	Average of the reactivity index (optical density of the sample/cut-off value) [1]	Percentage of positivity of human sera to peptide [1] [%]	Virus-specific proliferative response of spleen T lymphocytes [2]	Anti-peptide neutralization titer, D3 [3]	Anti-peptide neutralization titer, D2 [4]	Anti-peptide neutralization titer, D1 [5]	Anti-peptide neutralization titer, D4 [6]	Induction of neutralizing antibody production [7]	Level of protection (survival) after Dengue 2 virus challenge [8]	ELISA antibody titers against the synthetic peptides (synthetic peptides)
CEDTITYKCPLLRQNEPEDIDCW [B 20-2]	1.57	77.1	did not elicit a significant proliferative response	–	–	–	–	–	–	–
LETRTETWMSSEGAWKHAQRIE [B 20-3]	1.49	83.1	–	1/80	1/80	1/110	1/80	able to induce neutralizing antibody production	–	–
LTTRNGEPHMIVMRQEKGKSLLFKTGDGV [B 19-6]	1.07	56.8	Virus-specific proliferative responses were demonstrated; also recorded: proliferated	1/60	1/180	1/100	1/160	able to induce neutralizing antibody production	statistically significant; also recorded: statistically significative level of protection	–
NSTSTWVTYGTCTTTGEHRREKRSV [B 20-1]	1.52	79.6	–	–	–	–	–	–	statistically significant; also recorded: statistically significative level of protection	–
RQNEPEDIDCWCNSTSTWVTYGTCTTTGEHRREKRS [B 19-5]	–	–	Virus-specific proliferative responses were demonstrated; also recorded: proliferated	–	–	–	–	–	statistically significant; also recorded: statistically significative level of protection	–
PD33 (protein) MALVELKVPDIGGHENVDIIAVEVNVGDTIAVDDTLITLDLESVALTPHSGMGLETRAETWMSSEGAWKHAQRVESWILRNPRFLEMDVPAEVAGVVKEVKVKVGDKISEGGLIVVVEAEGTAAAPKAEAAAAPAQEAPKAAAPAPQAAQFGGSADAEYDVVVLGGGPGGYSAAFAAADEGLKVAIVERYKTLGGVCLNVGCIPSKALLHNAAVIDEVRHLAANGIKYPEPELDIDMLRAYKDGVVSRLTGGLAGMAKSRKVDVIQGDGQFLDPHHLEVSLTAGDAYEQAAPTGEKKIVAFKNCIIAAGSRVTKLPFIPEDPRIIDSSGALALKEVPGKLLIIGGGIIGLEMGTVYSTLGSRLDVVEMMDGLMQGADRDLVKVWQKQNEYRFDNIMVNTKTVAVEPKEDGVYVTFEGANAPKEPQRYDAVLVAAGRAPNGKLISAEKAGVAVTDRGFIEVDKQMRTNVPHIYAIGDIVGQPMLAHKAVHEGHVAAENCAGHKAYFDARVIPGVAYTSPEVAWVGETELSAKASGRKITKANFPWAASGRAIANGCDKPFTKLIFDAETGRIIGGGIVGPNGGDMIGEVCLAIEMGCDAADIGKTIHPHPTLGESIGMAAEVALGTCTDLPPQKKK	–	–	–	–	–	–	–	–	–	up to 1/4000
